Experimental data: patent US7169907B2, “Derivatives, immunogens, and antibodies for detecting ecstasy-class drugs” (Roche Diagnostics Operations, Inc., priority 2002, dated 2007)

test system: antibody NEAMP-1.3; assay: Cross-reactivity assay (competitive ELISA) of antibody NEAMP-1.3; type: binding, mice; conditions: ED50 of standard divided by ED50 of drug, times 100
Experimental: (§1) By determining the drug concentration that results in a 50% reduction in binding (ED 50) of a standard, methamphetamine, dividing by the ED50 of each other drug, and then multiplying the result by 100, the percent cross-reactivities shown in Table 2 can be calculated.
Microplates were coated with 100 μL Methamphetamine-BSA conjugate 28 and separate plates with 100 μL N-ethylamphetamine-BSA 26 (Q=BSA, 26b) at 1 μg/mL in 0.1 M carbonate buffer, pH 9.5 for 1 hour at 37° C. (humidified).
A criterion for selection was binding to the Methamphetamine-BSA conjugate 28. Table 5 presents binding data for a portion of the screening of the Meth-BSA 28 and NEAMP-BSA 26 (Q=BSA, 26b) coated plates.
(§2) Supernatants are subjected to serial dilutions and re-tested in the ELISA screen above. The dilution providing for about a 50% reduction from the maximum OD is chosen for proceeding to cross-reactivity testing. This consists of repeating the preceding assay with the antibody at the chosen dilution and in the presence of varying concentrations of drugs.

SMILES | Percent Cross-Reactivity
CN[C@@H](C)[C@H](O)c1ccccc1 [I-ephedrine] | 6.7%
CCC(Cc1ccc2c(c1)OCO2)NC (stereo not drawn) [MBDB, 3,4-methylenedioxyphenyl-N-methylbutanamine] | 20%
CCNC(C)Cc1ccc2c(c1)OCO2 (stereo not drawn) [MDEA, 3,4-methylenedioxy-N-ethylamphetamine] | 507%
CNC(C)Cc1ccc2c(c1)OCO2 (stereo not drawn) [MDMA, 3,4-methylenedioxy-N-methylamphetamine] | 114%
C[C@H]1[C@H](c2ccccc2)OCCN1C [Phendimetrazine] | 0.6%
CN[C@@H](C)[C@@H](O)c1ccccc1 [Pseudoephedrine, pseudoephedrine] | 2.0%
C[C@H](N)Cc1ccccc1 [d-AMP, d-amphetamine] | 32.5%
CN[C@@H](C)Cc1ccccc1 [d-MAMP, d-methamphetamine] | 100%

test system: antibody MDMA-2.1.1; assay: Cross-reactivity assay (competitive ELISA) of antibody MDMA-2.1.1; type: binding, mice; conditions: ED50 of standard divided by ED50 of drug, times 100
Excerpt: as §1
as §2, with “drugs. The charts shown in FIG. 5 and FIG. 6 present the results of such determinations.” for “drugs.”

SMILES | % Cross-reactivity
CN[C@@H](C)Cc1ccc2c(c1)OCO2 [d-MDMA] | 100%
